Data: the NIST ThermoML archive (doi:10.1016/j.jct.2014.07.005)
Numbers after ± are expanded uncertainties.

Assays:
[1] = mn = molality of the nth substance listed, in mol/kg; conditions: 100 kPa, Liquid; for viscosity: Capillary tube (Ostwald / Ubbelohde) method; for mass density: Vibrating tube method
[2] = 100 kPa, Liquid, Capillary tube (Ostwald / Ubbelohde) method

CCCCCCCCn1cc[n+](C)c1.[Br-] [1-methyl-3-octylimidazolium bromide] + O
[1]
Conditions | mass density, m1 = 0.0035 [kg/m3] | mass density, m1 = 0.0111 [kg/m3] | mass density, m1 = 0.0185 [kg/m3] | viscosity, m1 = 0.0035 [mPa·s] | viscosity, m1 = 0.0111 [mPa·s] | viscosity, m1 = 0.0185 [mPa·s]
288.15 K | 999.275 ± 0.12 | 999.611 ± 0.12 | 999.913 ± 0.11 | 1.146 ± 0.024 | 1.151 ± 0.024 | 1.154 ± 0.024
293.15 K | 998.364 ± 0.12 | 998.697 ± 0.11 | 998.983 ± 0.11 | 1.006 ± 0.021 | 1.013 ± 0.021 | 1.021 ± 0.021
298.15 K | 997.197 ± 0.12 | 997.499 ± 0.11 | 997.781 ± 0.11 | 0.895 ± 0.019 | 0.9 ± 0.019 | 0.904 ± 0.019
303.15 K | 995.792 ± 0.12 | 996.09 ± 0.11 | 996.32 ± 0.11 | 0.8 ± 0.017 | 0.805 ± 0.017 | 0.807 ± 0.017
308.15 K | 994.141 ± 0.11 | 994.373 ± 0.11 | 994.59 ± 0.11 | 0.721 ± 0.015 | 0.723 ± 0.015 | 0.728 ± 0.015
313.15 K | 992.331 ± 0.11 | 992.622 ± 0.11 | 992.876 ± 0.11 | 0.655 ± 0.014 | 0.659 ± 0.014 | 0.66 ± 0.014

O [water]
[2]
Conditions | viscosity [mPa·s]
288.15 K | 1.139 ± 0.024
293.15 K | 1.002 ± 0.021
298.15 K | 0.89 ± 0.019
303.15 K | 0.798 ± 0.017
308.15 K | 0.719 ± 0.015
313.15 K | 0.653 ± 0.014

O [water] + CCCCCCCCn1cc[n+](C)c1.[Br-]
[1], m2 = 0
Conditions | viscosity [mPa·s]
288.15 K | 1.139 ± 0.024
293.15 K | 1.002 ± 0.021
298.15 K | 0.89 ± 0.019
303.15 K | 0.798 ± 0.017
308.15 K | 0.719 ± 0.015
313.15 K | 0.653 ± 0.014
